Entries after “also recorded” stand apart in the source; their conditions may differ.
How the values were obtained:
BALB/c splenocytes = experiment: Standard mixed lymphocyte reaction (MLR); type: cell-based, mice
Protocol: (§1) FLT3 inhibition decreases DC-based proliferation of T cells. For these experiments, DCs were generated as above from BALBc mice. The cells were left untreated or were treated with CEP701 and then plated with C57BL/6 splenocytes at the ratios shown. After 3 days, ^3H was added, and the proliferation determined. […] In FIG. 2b, BALB/c splenocytes were substituted for DCs, in order to test the inhibition of CEP701 on a standard mixed lymphocyte reaction (MLR). […] To determine whether T cell stimulatory response would be inhibited as a result of exposure to AG1296, two different T cell proliferative assays were conducted. […] In this standard mixed lymphocyte reaction, equal numbers of stimulator and responder cells (10^6 of each) were mixed in a 96 well plate, incubated for 4 days, pulsed with 3H-thymidine, and proliferation was determined by analyzing incorporation of tritium. DC-stimulated proliferation was also determined by incubating BM derived DCs (day 8, as above) at a ratio of 1:10 with responder allogeneic splenocytes, in the presence (10 μm) or absence of AG1296.

[1] = Established experimental autoimmune encephalomyelitis (EAE), MOG 35-55; type: in vivo, C57BL/6 mice; conditions: 20 mg/kg, started within one day of initial symptoms, scored daily, blinded
Protocol: C57BL/6 mice were injected with 100 micrograms of the Established Experimental Allergic Encephalitomyelitis (EAE) inducing peptide MOG 35-55 in CFA with 400 micrograms of Mycobacterium tuberculosis. On the day of immunization and 48 hours later, mice were boosted with pertussis toxin, following standard protocols. […] Scores were as follows: 0 (no symptoms), 0.5 (partial loss of tail tonicity), 1 (full loss of tail tonicity), 2 (affected gait), 2.5 (partial hind limb paralysis) 3 (full hind limb paralysis) 4 (front and hind paralysis) 5 (moribund). 10 mice/group were treated in the study shown.

[2] = system: Dendritic cells (CD11c+ cells); experiment: Apoptosis, survival of mature bone-marrow DCs treated with FLT3 inhibitors (FACS, Annexin V); type: cell-based, mice; conditions: for apoptosis in DCs (Annexin V binding): 24 hours; for survival and stimulation of the DCs: mature DCs, dose-response analysis, in the presence of GM-CSF+/−FL
Protocol: The survival and function of the DCs was investigated when exposed to FLT3 inhibitors. Mature DCs were incubated in a dose-response analysis to CEP 701, 5214 and AG 1296 in the presence of GM-CSF+/−FL.
Bone marrow (BM) was flushed from the extremities of mice with PBS, red blood cells (RBCs) were lysed in hypotonic buffer, and after washing the cells were plated at 2×10^6 cells/ml in GM-CSF (1000 U/ml) or GM+FL (100 ng/ml) containing medium. On days 2, 4, and 6, non-adherent cells were removed and adherent cells were washed prior to the addition of fresh medium. On day 8, non-adherent mature DCs were harvested, and replated in the absence or presence of CEP-701 at 5 or 50 nM. After 24 hours, cells were then stained for FACS analysis. CD11c+ cells were assessed for MHC class II expression and Annexin V binding (FIG. 1A).
After washing, the cells were plated at 2×10^6 cells/ml in GM-CSF (1000 U/ml)+FL (100 ng/ml) containing medium. On days 2, 4, and 6, non-adherent cells were removed and adherent cells were washed prior to the addition of fresh medium. On day 8, non-adherent mature DCs were harvested, and replated in the absence or presence of AG 1296. After 24 hours, cells were stained for FACS analysis. Dendritic cells (CD11c+ cells) were assessed for CD86 expression and Annexin V binding (FIG. 1B). […] For DCs to activate T cells, they present antigen bound to MHC molecules and express co-stimulatory proteins on their surfaces.

[3] = system: CD11c and NK cell populations; experiment: Immune cell populations in spleens and lymph nodes of treated mice (FACS); type: in vivo, BALB/c mice; conditions: 20 mg/kg twice a day for 5 days
Protocol: BALB/c mice were treated with 20 mg/kg of CEP701 or vehicle twice a day for 5 days, and then were analyzed for their immune populations. Spleens and lymph nodes were harvested and collagenase digested to release DCs from the stroma. Cells were then washed and analyzed by FACS for the presence of T (CD3+/DX5−), NK (CD3−,DX5+), B (B220+, CD11c−) or DCs (CD11c+).

[4] = system: transgenic T cells that are specific for HA; experiment: In vivo autoreactive T cell expansion in HA transgenic (137) mice given 6.5 T cells; conditions: 137 mice treated 3 days prior to and 5 days after T cell transfer
T cells [5] = experiment: DC-stimulated proliferation of T cells (3H incorporation); type: cell-based, mice
Protocol: as §1

T cells [6] = experiment: Direct stimulation of T cells on anti-CD3 plates with anti-CD28 antibody; type: cell-based; conditions: anti-CD3 coated plates, 2 days, 3H
Protocol: T cells were then stimulated with anti-CD28 antibody. After 2 days, 3H was added, and the proliferation determined.

axons = experiment: Degenerating axonal fibers in medial dorsal column of MOG-immunized mice; type: in vivo; conditions: cervical level 5, 210 days post disease induction, versus vehicle
From the text: In reference to FIG. 10, intact brain and spinal cords were removed from mice that were immunized with MOG peptide, and either treated with the vehicle control or CEP-701 after symptom onset. Following treatment and scoring, the mice were kept for an additional 2 months, then sacrificed and the CNS prepared for evaluation by preservation in formalin. Thin plastic sections ([…]) were generated from cervical level 5, followed by staining in Toluidine blue and axons were visualized. Total axon numbers and actively degenerating fibers in a predefined area of the medial dorsal column were enumerated by an experienced examiner in a blinded fashion. Plots show the number of degenerating axonal fibers in the defined field area for the sections of CEP-701 treated mice compared to vehicle control mice at 210 days post disease induction.

[7] = system: co-stimulatory molecules B7.2 (CD 86) and B7-DC; experiment: Expression of co-stimulatory molecules B7.2 (CD 86) and B7-DC on DCs; type: cell-based, Murine; conditions: AG1296 at 0, 1, or 10 μM
Protocol: FIG. 6 depicts the treatment of DCs with AG1296 at either 0, 1, or 10 μM and then analyzed for the expression of co-stimulatory molecules B7.2 (CD 86) and B7-DC.
(§2) To investigate the role of FL/FLT3 stimulation in regulating costimulatory protein expression by DC, […] or GM-CSF plus FL, were analyzed by Northern blotting for expression of B7-DC, a member of the B7 family of co-stimulatory molecules. […] The inhibition of FLT3 signaling led to a down-regulation of B7-DC as well as B7.2 (CD 86) in these DCs (FIG. 6).

B7-DC = experiment: Northern blot for hB7-DC in human bone marrow cells treated with cytokines; type: cell-based; conditions: FL added to GM-CSF
Protocol: as §2

C[C@]12O[C@H](C[C@]1(O)CO)n1c3ccccc3c3c4c(c5c6ccccc6n2c5c31)CNC4=O [CEP-701]
mixed lymphocyte reaction (MLR) response (BALB/c splenocytes; BALB/c splenocytes substituted for DCs, CEP701): inhibited
EAE clinical score (0-5) [1]: lower scores
apoptosis in DCs (Annexin V binding) ([2]; CEP-701 at 5 or 50 nM, DCs generated in GM-CSF alone or GM-CSF and FL): induced apoptosis; also recorded: induction of apoptosis in a significant fraction of the DCs
survival and stimulation of the DCs [2]: decrease in survival and stimulation
B (B220+, CD11c−) cell population [3]: no significant change
DC (CD11c+) population [3]: decreases
NK (CD3−,DX5+) population [3]: decreases
T (CD3+/DX5−) cell population [3]: no significant change
autoreactive T cell expansion, as measured by thy 1.1 ([4]; listed as CEP 701): decreases an in vivo autoreactive immune response
autoreactive T cell expansion, as measured by thy 1.1 ([4]; listed as CEP701): decrease in the autoreactive T cell expansion
DC-based proliferation of T cells (T cells [5]; BALBc DCs treated with CEP701, plated with C57BL/6 splenocytes, 3 days, 3H): robust effect on decreasing proliferation of T cells
proliferation of directly stimulated T cells (T cells [6]): does not inhibit their proliferation
number of degenerating axonal fibers (neurodegeneration) (axons): decrease in neurodegeneration

COc1cc2ncc(-c3ccccc3)nc2cc1OC [AG1296]
mixed lymphocyte reaction proliferation (BALB/c splenocytes; allogeneic spleen cells, 10^6 each, 4 days, 3H-thymidine, AG1296 10 μm): inhibition
expression of co-stimulatory molecule B7-DC on DCs [7]: down regulated
expression of co-stimulatory molecule B7.2 (CD 86) on DCs [7]: down regulated
apoptosis in DCs (Annexin V binding) ([2]; AG 1296 at 0, 1, and 10 μM, DCs generated in GM-CSF + FL): confirmed; also recorded: induced apoptosis in DCs in a dose-dependent fashion
apoptosis in DCs (Annexin V binding) ([2]; AG 1296 at 0, 1, and 10 μM, DCs generated in GM-CSF + FL, listed as AG 1296): induction of apoptosis in a significant fraction of the DCs
survival and stimulation of the DCs [2]: decrease in survival and stimulation
T cell proliferation induced by DCs (T cells [5]; BM derived DCs 1:10 with allogeneic splenocytes, AG1296 10 μm): decrease in T cell proliferation; also recorded: inhibited

CC(C)OCc1ccc2c(c1)c1c3c(c4c(c1n2CCCO)Cc1ccccc1-4)C(=O)NC3 [CEP-5214]
apoptosis in DCs ([2]; CEP-5214, data not shown): confirmed
survival and stimulation of the DCs [2]: decrease in survival and stimulation

B1: FL: FLT3 Ligand (FL), ligand that stimulates the FLT3 receptor (protein, UniProt P49771 27-235, looked up)
Fms-related tyrosine kinase 3 …: TQDCSFQHSPISSDFAVKIRELSDYLLQDYPVTVASNLQDEELCGGLWRLVLAQRWMERLKTVAGSKMQGLLERVNTEIHFVTKCAFQPPPSCLRFVQTNISRLLQETSEQLVALKPWITRQNFSRCLELQCQPDSSTLPPPWSPRPLEATAPTAPQPPLLLLLLLPVGLLLLAAAWCLHWQRTRRRTPRPGEQVPPVPSPQDLLLVEH
B7-DC expression (Northern blot) (B7-DC): greatly up-regulates

Reference: patent publication US20090054358A1, “Flt3 inhibitors for immune suppression” (THE JOHN HOPKINS UNIVERSITY, priority 2004, published 2009)
